Blank lines part the entries; values can stand above or below the compound they belong to.
Experiments:
[1] = molecular target: purified human liver LDHA (Homo sapiens, UniProt P00338); test: Determination of Ki and enzyme kinetics of LDHA
Description: The reaction velocity of purified human LDHA or GAPDH was determined by a decrease or increase in absorbance at 340 nm of NADH, respectively. […] The GADPH activity was assessed using the protocol described in Worthington Enzyme Manual: http://www.worthington-biochem.com/GAPD/assay.html with varying concentrations of NAD^+. Ki values were determined from double-reciprocal plots by linear regression analysis using SigmaPlot Enzyme Kinetic software.

LDHA [2] = molecular target: T1, LDHA (Homo sapiens, UniProt P00338); settings: cited from earlier work
[3] = tested on: P493 human lymphoma B cells; test: Human P493 B cell lymphoma xenograft; format: in vivo, SCID mice; settings: treatment from 200 mm^3; daily IP 42 μg FX11 and/or 100 μg FK866; ten days
Description: The animal studies were performed according to the protocols approved by the Animal Care and Use Committee at Johns Hopkins University. In order to generate tumorigenesis study in xenograft model, 2.0×10^7 P493 human lymphoma B cells or 5×10^6 human pancreatic cancer cells were injected subcutaneously into male SCID mice (NCI) or athymic Hsd: RH-Foxn1nu mice (Harlan), respectively, as previously described (Feldmann et al., 2007; Gao et al., 2009; Gao et al., 2007). When the tumor volume reached 200 mm^3, groups of 5 mice were injected with control 2% DMSO or 42 μg FX11 and/or 100 μg FK866. The tumor volumes were measured using a digital caliper after 4, 7 and 10 days of treatment. Tumor volumes were calculated using the following formula: [length (mm)×width (mm)×width (mm)×0.52]. The entire experiment was repeated seven times.

AMP kinase (AMPK) = test: Immunoblot of phospho-AMPK; format: cell-based, human; settings: 20 hours of exposure
P493 cells [4] = test: Mitochondrial membrane potential by JC-1 flow cytometry; format: cell-based, human; settings: 9 μM FX11 or/and FK866, 24 hours
Excerpt: The lipophilic cation dye (5,5′,6,6′-tetrachloro-1,1′,3,3′-tetraethylbenzimidazolcarbocyanine iodide, JC-1) (Invitrogen) was used to detect the loss of the mitochondrial membrane potential. The negative charge established by the intact mitochondrial membrane potential lets the lipophilic dye stain the mitochondria bright red which emits in channel 2 (FL2). When the mitochondrial membrane potential collapses, JC-1 remains in the cytoplasm in a green fluorescent monomeric emission in channel 1 (FL1). JC-1 reversibly changes its color from green to orange as membrane potentials increase (over values of 80-100 mV). 10^5 cells/ml were treated with 9 μM FX11 or/and FK866 for 24 hours. Stained cells were analyzed in FACScan flow cytometers (BD Bioscience).

[5] = Side effects, hematology and blood chemistry in treated animals
P493 cells [6] = test: ROS measurement by DCFDA flow cytometry; format: cell-based, human
Description: The measurement of intracellular ROS production was measured by staining cells with 5-(and-6)-carboxy-2′,7′-dichlorodihydrofluorescein diacetate (carboxy-H2DCFDA; Molecular Probes) according to the manufacturer's instructions. 10^5 cells/ml were treated with 9 μM FX11 or FK866 for 24 hours. Stained cells were analyzed in FACScan flow cytometers (BD Bioscience).

P493 cells [7] = test: ATP levels, luciferin-luciferase-based assay; format: cell-based, human; settings: 9 μM FX11 or 0.5 nM FK866, 20 hours
Description: P493 cells were treated with 9 μM FX11 or 0.5 nM FK866 for 20 hours and counted. ATP levels were determined by luciferin-luciferase-based assay (Promega) on aliquots containing equal number of cells according to standard protocol.

[8] = tested on: P493 human lymphoma B cells; test: Cell population growth, trypan blue live cell count; format: cell-based
Description: P493 human lymphoma B cells were maintained in RPMI 1640 with 10% fetal bovine serum (FBS) and 1% penicillin-streptomycin. P198 human pancreatic cancer cells; RCC4, RCC4-VHL human renal carcinoma cells; MCF-7 and MDA-MB-453 breast cancer cells were maintained in high glucose (4.5 mg/ml) DMEM with 10% FBS and 1% penicillin-streptomycin. Non-hypoxic cells (20% O2) were maintained at 37° C. in a 5% CO2, 95% in an air incubator. Hypoxic cells (1% O2) were maintained in a controlled atmosphere chamber (PLAS-LABS, Lansing, Mich.) with a gas mixture containing 1% O2, 5% CO2, and 94% N2 at 37° C. for the indicated time. Bright live cells were counted daily in a hemacytometer using trypan blue dye to exclude dead cells. All cells were grown at a concentration of 10^5 cells/ml. All drugs treatment began at day 0.
siRNAs targeting human LDHA (ON-TARGETplus SMARTpool) were purchased from Dharmacon Research Inc. Targeting sequences for LDHA were a pool of the following four target sequences: sequence 1, […]; sequence 2, […]; sequence 3, […]; sequence 4, […]. Accordingly, one of skill in the art would recognize the siRNA sequences corresponding to these targets. For P493 human lymphoma B cells, transfection of siRNAs was performed using an Amaxa Nucleotransfection device according to the manufacturer's instructions. Briefly, 2 μg siLDHA ON-TARGETplus SMARTpool or ON-TARGETplus Non-targeting Pool (Dharmacon Research Inc.) were transfected into 2×10^6 cells at 0 hours. […]. The remaining cells were harvested for immunoblot analysis. For P198 human pancreatic cancer cells, transfection of siRNAs was performed using X-tremeGENE siRNA Transfection Reagent (Roche) according to the manufacturer's instructions.

P493 cells [9] = test: Annexin V / 7-AAD cell death assay; format: cell-based, human; settings: NAC 20 mM at 24 hours post-transfection
LDHA [10] = molecular target: T1, LDHA; test: Screen of 1200 FDA approved compounds for an inhibitor of LDHA; format: biochemical
Excerpt: Reduction of LDHA by siRNA induced oxidative stress and cell death. To determine whether a small molecule inhibitor of LDHA could be used to modulate tumor metabolism, 1200 FDA approved compounds were screened to identify an inhibitor of LDHA. […] As such, a series of compounds generated by Vander Jagt and coworkers, who were specifically interested in targeting malarial LDH (pLDH) (Deck et al., 1998; Yu et al., 2001) was screened. […]; 2,3-dihydroxy-6-methyl-7-(phenylmethyl)-4-propylnaphthalene-1-carboxylic acid, Pubchem ID: 10498042) and 11e (E; 2,3-dihydroxy-6-methyl-7-(methyl)-4-propylnaphthalene-1-carboxylic acid, Pubchem ID: 10265351). […]; Yu et al., 2001). […]

Structure (SMILES): CCCc1c(O)c(O)c(C(=O)O)c2cc(C)c(C)cc12 [E, 2,3-dihydroxy-6-methyl-7-(methyl)-4-propylnaphthalene-1-carboxylic acid, reference compound]
Ki [1]: > 90 µM | mode of inhibition of LDHA ([1]; NADH as substrate, Lineweaver-Burk plots): competitive inhibitors | LDHA inhibitory activity (LDHA [2]): lower inhibitory activity versus FX11 | tumor growth of established P493 lymphoma xenografts [3]: no detectable anti-tumor activity

Structure (SMILES): O=C(/C=C/c1cccnc1)NCCCCC1CCN(C(=O)c2ccccc2)CC1 [FK866, reference compound]
AMP kinase (AMPK) activation (AMP kinase (AMPK)): activation | mitochondrial membrane potential (P493 cells [4]): decreased | kidney (BUN, creatinine) or liver (aspartate aminotransferase, alanine aminotransferase, alkaline phosphatase) toxicity by blood chemistries ([5]; doses that affected tumor growth in vivo): did not reveal any evidence | hematology (cytopenia) ([5]; single agent, five animals studied): mild thrombocytopenia | ROS production (P493 cells [6]; 9 μM FX11 or FK866, 24 hours): increased ROS production | ATP levels (P493 cells [7]): decrease in ATP levels | proliferation of P493 cells ([8]; single agent): diminished proliferation | tumor growth of established P493 lymphoma xenografts [3]: cytostatic outcome

Structure (SMILES): CC(=O)N[C@@H](CS)C(=O)O [NAC, N-acetylcysteine, reference compound]
effect on cell death of siRNA-transfected cells (P493 cells [9]): partially reduced cell death | effect on ROS induced by LDHA siRNA (P493 cells [6]; cells exposed to NAC): attenuated | effect on proliferation of P493 cells treated with either FX11 or FK866 ([8]; 20 mM NAC): partially rescue | effect on cell proliferation of siRNA-transfected cells ([8]; NAC 20 mM at 24 hours post-transfection): partial rescue of cell proliferation

LDHA inhibition in screen (LDHA [10]): weak LDHA inhibitor
Structure (SMILES): CCCOc1ccccc1-c1nc2nn[nH]c2c(=O)[nH]1 [Zaprinast]

Reference: patent US20120003156A1, “METHODS FOR TREATING NEOPLASIA BY INHIBITING LACTATE DEHYDROGENASE AND/OR NICOTINAMIDE PHOSPHORIBOSYLTRANSFERASE” (The Johns Hopkins University, priority 2008, published 2012)
